The target in this test is T1, Human Rheumatoid Synovial collagenase (Homo sapiens, UniProt P03956).
T1 construct: Synovial collagenase; from tissue; host or cells: human rheumatoid synovium (from the enzyme's printed name)
T1 sequence (P03956 100-469): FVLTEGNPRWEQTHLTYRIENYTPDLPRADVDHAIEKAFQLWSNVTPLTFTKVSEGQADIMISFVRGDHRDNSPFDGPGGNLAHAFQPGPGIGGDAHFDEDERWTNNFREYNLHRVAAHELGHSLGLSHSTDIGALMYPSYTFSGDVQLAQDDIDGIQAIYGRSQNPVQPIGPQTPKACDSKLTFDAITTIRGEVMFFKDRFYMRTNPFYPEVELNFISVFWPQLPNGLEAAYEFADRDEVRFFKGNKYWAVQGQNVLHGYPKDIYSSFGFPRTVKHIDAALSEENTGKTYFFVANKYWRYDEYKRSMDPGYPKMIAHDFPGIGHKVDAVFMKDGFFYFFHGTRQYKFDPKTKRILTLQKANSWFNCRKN
Briefly: Inhibition of collagenase: acetyl 14C collagen degradation (Cawston and Barrett), concentration effecting 50% inhibition. Format: biochemical. To be noted: Table 3; comparison R1 = H vs CH3; 37° C., 16 hours, pH 7.6; read-out: IC50 against human rheumatoid sinovial [collagenase]. As for the experimental part:
This was determined following the procedure of Cawston and Barrett, Anal. Biochem,. 99, 340-345 (1979) whereby the 1 mM of the inhibitor being tested or dilutions thereof are incubated at 37° C. for 16 hours with native collagen and collagenase (buffered with Tris HCl--CaCl2; pH 7.6). The collagen is acetyl ^14 C collagen. The samples are centrifuged to sediment undigested collagen and an aliquot of the radiactive supernatant removed for assay on a scintillation counter as a measure of hydrolysis. The collagenase activity in the presence of 1 mM inhibitor, or a dilution thereof, is compared to activity in a control devoid of inhibitor and the results reported as that inhibitor concentration effecting 50% inhibition of the collagenase.
This was determined following the procedure of Cawston and Barrett, Anal. Biochem., 99, 340-345 (1979) whereby the 1 mM of the inhibitor being tested or dilutions thereof are incubated at 37° C. for 16 hours with native collagen and collagenase (buffered with Tris HCl--CaCl2; pH 7.6). The collagen is acetyl […] collagen. The samples are centrifuged to sediment undigested collagen and an aliquot of the radioactive supernatant removed for assay on a scintillation counter as a measure of hydrolysis. […]

As for `CNC(=O)[C@@H](NC(=O)C(CC(C)C)C(C)S)[C@@H](C)OCc1ccccc1` (stereo partly drawn) [Example 6 A, N-[2-(1-Mercaptoethyl)-4-methylpentanoyl]-O-benzyl-L-threonine N-Methylamide], the IC50 came to 0.45 µM.

The values are drawn from patent US4681966A, “Intermediate for thiol based collagenase inhibitors” (G. D. Searle & Co., priority 1986, dated 1987).
